Common to all, as to type: functional
Test [1] concerns Pseudomonas aeruginosa. As to the kind of experiment: Induction of ampC mRNA in ampD::lox and nagZ::lox gene-deficient Pseudomonas aeruginosa PAO1 at 50 ug/ml by RT-PCR relative to wild type Pseudomonas aeruginosa PAO1 (reference value: 1 +/- 0.4 no unit).
Test [2] concerns Pseudomonas aeruginosa. As to the kind of experiment: Induction of creD mRNA in ampD::lox, ampDh2::lox,ampDh3::lox and nagZ::lox gene-deficient Pseudomonas aeruginosa PAO1 at 50 ug/ml by RT-PCR relative to wild type Pseudomonas aeruginosa PAO1 (reference value: -1.4 +/- 0.1 no unit).
Test [3] relates to Pseudomonas aeruginosa. As to the kind of experiment: Induction of ampC mRNA in ampD::lox gene-deficient Pseudomonas aeruginosa PAO1 at 50 ug/ml by RT-PCR relative to wild type Pseudomonas aeruginosa PAO1 (reference value: 1770 +/- 414 no unit) harboring dacB gene.
The subject of test [4] is Pseudomonas aeruginosa. Put plainly: Induction of creD mRNA in ampD::lox and nagZ::lox gene-deficient Pseudomonas aeruginosa PAO1 at 50 ug/ml by RT-PCR relative to wild type Pseudomonas aeruginosa PAO1 (reference value: 2.8 +/- 1.6 no unit).
In test [5] the test system is Pseudomonas aeruginosa. Put plainly: Induction of creD mRNA in nagZ::lox gene-deficient Pseudomonas aeruginosa PAO1 at 50 ug/ml by RT-PCR relative to wild type Pseudomonas aeruginosa PAO1 (reference value: 1.1 +/- 0.3 no unit).
The test system of test [6] is Pseudomonas aeruginosa. Put plainly: Induction of ampC mRNA in Pseudomonas aeruginosa PAO1 at 50 ug/ml by RT-PCR relative to wild type Pseudomonas aeruginosa PAO1 (reference value: 1 no unit).
The subject of test [7] is Pseudomonas aeruginosa. Put plainly: Induction of ampC mRNA in ampD::lox gene-deficient Pseudomonas aeruginosa PAO1 at 50 ug/ml by RT-PCR relative to wild type Pseudomonas aeruginosa PAO1 (reference value: 47 +/-9.5 no unit).
Test [8] concerns Pseudomonas aeruginosa. As to the kind of experiment: Induction of creD mRNA in Pseudomonas aeruginosa PAO1 at 50 ug/ml by RT-PCR relative to wild type Pseudomonas aeruginosa PAO1 (reference value: 1 no unit).
Test [9] deals with Pseudomonas aeruginosa. Put plainly: Induction of ampC mRNA in nagZ::lox gene-deficient Pseudomonas aeruginosa PAO1 at 50 ug/ml by RT-PCR relative to wild type Pseudomonas aeruginosa PAO1 (reference value: -2.1 +/- 1.5 no unit).
Test [10] concerns Pseudomonas aeruginosa. Put plainly: Induction of creD mRNA in ampD::lox and nagZ::lox gene-deficient Pseudomonas aeruginosa PAO1 at 50 ug/ml by RT-PCR relative to wild type Pseudomonas aeruginosa PAO1 (reference value: 1.9 +/- 1.3 no unit) harboring dacB gene.
Test [11] concerns Pseudomonas aeruginosa. As to the kind of experiment: Induction of ampC mRNA in ampD::lox, ampDh2::lox,ampDh3::lox and nagZ::lox gene-deficient Pseudomonas aeruginosa PAO1 at 50 ug/ml by RT-PCR relative to wild type Pseudomonas aeruginosa PAO1 (reference value: 57 +/- 31 no unit).
Test [12] has as its system Pseudomonas aeruginosa. Put plainly: Induction of creD mRNA in dacB::lox and nagZ::lox gene-deficient Pseudomonas aeruginosa PAO1 at 50 ug/ml by RT-PCR relative to wild type Pseudomonas aeruginosa PAO1 (reference value: 4 +/- 0.8 no unit).
Test [13] relates to Pseudomonas aeruginosa. Put plainly: Induction of ampC mRNA in dacB::lox gene-deficient Pseudomonas aeruginosa PAO1 at 50 ug/ml by RT-PCR relative to wild type Pseudomonas aeruginosa PAO1 (reference value: 51 +/- 16 no unit).
Test [14] deals with Pseudomonas aeruginosa. Put plainly: Induction of creD mRNA in ampD::lox gene-deficient Pseudomonas aeruginosa PAO1 at 50 ug/ml by RT-PCR relative to wild type Pseudomonas aeruginosa PAO1 (reference value: 1.1 +/- 0.3 no unit).
Test [15] concerns Pseudomonas aeruginosa. Put plainly: Induction of ampC mRNA in ampR::lox gene-deficient Pseudomonas aeruginosa PAO1 at 50 ug/ml by RT-PCR relative to wild type Pseudomonas aeruginosa PAO1 (reference value: 3.8 +/- 0.4 no unit).
Test [16] relates to Pseudomonas aeruginosa. Put plainly: Induction of creD mRNA in dacB::lox gene-deficient Pseudomonas aeruginosa PAO1 at 50 ug/ml by RT-PCR relative to wild type Pseudomonas aeruginosa PAO1 (reference value: 83 +/- 7 no unit).
Test [17] has as its system Pseudomonas aeruginosa. As to the kind of experiment: Induction of creD mRNA in ampD::lox, ampDh2::lox and ampDh3::lox gene-deficient Pseudomonas aeruginosa PAO1 at 50 ug/ml by RT-PCR relative to wild type Pseudomonas aeruginosa PAO1 (reference value: 1.3 +/- 0.3 no unit).
Test [18] relates to Pseudomonas aeruginosa. Put plainly: Induction of ampC mRNA in ampD::lox and nagZ::lox gene-deficient Pseudomonas aeruginosa PAO1 at 50 ug/ml by RT-PCR relative to wild type Pseudomonas aeruginosa PAO1 (reference value: 40 +/- 17 no unit) harboring dacB gene.
Test [19] concerns Pseudomonas aeruginosa. As to the kind of experiment: Induction of creD mRNA in ampD::lox gene-deficient Pseudomonas aeruginosa PAO1 at 50 ug/ml by RT-PCR relative to wild type Pseudomonas aeruginosa PAO1 (reference value: 51 +/- 24 no unit) harboring dacB gene.
The subject of test [20] is Pseudomonas aeruginosa. Put plainly: Induction of creD mRNA in ampR::lox gene-deficient Pseudomonas aeruginosa PAO1 at 50 ug/ml by RT-PCR relative to wild type Pseudomonas aeruginosa PAO1 (reference value: 1.6 +/- 0.1 no unit).
In test [21] the test system is Pseudomonas aeruginosa. Put plainly: Induction of ampC mRNA in dacB::lox and nagZ::lox gene-deficient Pseudomonas aeruginosa PAO1 at 50 ug/ml by RT-PCR relative to wild type Pseudomonas aeruginosa PAO1 (reference value: 3 +/- 1.9 no unit).
In test [22] the test system is Pseudomonas aeruginosa. Put plainly: Induction of ampC mRNA in ampD::lox, ampDh2::lox and ampDh3::lox gene-deficient Pseudomonas aeruginosa PAO1 at 50 ug/ml by RT-PCR relative to wild type Pseudomonas aeruginosa PAO1 (reference value: 1020 +/- 88 no unit).

For `CO[C@@]1(NC(=O)Cc2cccs2)C(=O)N2C(C(=O)O)=C(COC(N)=O)CS[C@@H]21` [CEFOXITIN], the “fold change (FC)” value is on record as 483 with Pseudomonas aeruginosa [1]; 1 in the test on Pseudomonas aeruginosa [2]; 1950 in the test on Pseudomonas aeruginosa [3]; 99 in the test on Pseudomonas aeruginosa [4]; 54 in the test with Pseudomonas aeruginosa [5]; 78 with Pseudomonas aeruginosa [6]. Further, the “fold change (FC)” value in the test on Pseudomonas aeruginosa [7] stood at 134; in the test with Pseudomonas aeruginosa [8], 24; with Pseudomonas aeruginosa [9], 469; in the test on Pseudomonas aeruginosa [10], 418; in the test on Pseudomonas aeruginosa [11] it was 905; in the test on Pseudomonas aeruginosa [12], 95. For the same compound, the “fold change (FC)” value is given as 232 with Pseudomonas aeruginosa [13]; 2.7 with Pseudomonas aeruginosa [14]; 3.3 with Pseudomonas aeruginosa [15]; 120 in the test with Pseudomonas aeruginosa [16]; 1.6 with Pseudomonas aeruginosa [17]; 906 in the test with Pseudomonas aeruginosa [18]. Also, the “fold change (FC)” value with Pseudomonas aeruginosa [19] is recorded as 81; with Pseudomonas aeruginosa [20] it was 189; with Pseudomonas aeruginosa [21] it was 661; in the test on Pseudomonas aeruginosa [22] it was 1105.

These data come from ChEMBL document CHEMBL1687765, “NagZ inactivation prevents and reverts beta-lactam resistance, driven by AmpD and PBP 4 mutations, in Pseudomonas aeruginosa” (2010).
